Measurements as given in PubChem BioAssay (NCI).
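96-well plates; 48 h exposure; 5 concentrations. Endpoints by linear interpolation between flanking doses. Not reached: highest tested concentration assigned. Here, GI50 denotes the concentration required for 50% inhibition of growth. TGI denotes the concentration required for complete inhibition of growth.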

What was measured:
Assay in all cases: growth of human tumour cells (NCI), 48 h; in the data active = GI50 below about 0.43 µM; inactive = the rest
[1] = system: 786-0 renal
[2] = system: A498 renal
[3] = system: A549 NSCLC
[4] = system: ACHN renal
[5] = system: BT-549 breast
[6] = system: CAKI-1 renal
[7] = system: CCRF-CEM leukemia
[8] = system: COLO 205 colon
[9] = system: DU-145 prostate
[10] = system: EKVX NSCLC
[11] = system: HCC-2998 colon
[12] = system: HCT-116 colon
[13] = system: HCT-15 colon
[14] = system: HL-60(TB) leukemia
[15] = system: HOP-62 NSCLC
[16] = system: HOP-92 NSCLC
[17] = system: HS 578T breast
[18] = system: HT29 colon
[19] = system: IGROV1 ovarian
[20] = system: K-562 leukemia
[21] = system: KM12 colon
[22] = system: LOX IMVI melanoma
[23] = system: M14 melanoma
[24] = system: MALME-3M melanoma
[25] = system: MCF7 breast
[26] = system: MDA-MB-231 breast
[27] = system: MDA-MB-435
[28] = system: MOLT-4 leukemia
[29] = system: NCI-H226 lung
[30] = system: NCI-H23 lung
[31] = system: NCI-H460 lung
[32] = system: NCI-H522 lung
[33] = system: NCI/ADR-RES ovarian
[34] = system: OVCAR-3 ovarian
[35] = system: OVCAR-4 ovarian
[36] = system: OVCAR-5 ovarian
[37] = system: OVCAR-8 ovarian
[38] = system: PC-3 prostate
[39] = system: RPMI-8226 leukemia
[40] = system: RXF 393 renal
[41] = system: SF-268 CNS
[42] = system: SF-295 CNS
[43] = system: SF-539 CNS
[44] = system: SK-MEL-2 melanoma
[45] = system: SK-MEL-28 melanoma
[46] = system: SK-MEL-5 melanoma
[47] = system: SK-OV-3 ovarian
[48] = system: SN12C renal
[49] = system: SNB-19 CNS
[50] = system: SNB-75 CNS
[51] = system: SW-620 colon
[52] = system: T-47D breast
[53] = system: TK-10 renal
[54] = system: U251 CNS
[55] = system: UACC-257 melanoma
[56] = system: UACC-62 melanoma
[57] = system: UO-31 renal
[58] = system: SR leukemia

Cn1c(-c2nonc2N)nc2cnccc21
inactive: GI50 [1] > 25 µM | GI50 [2] 16 µM | GI50 [3] > 25 µM | GI50 [4] > 25 µM | GI50 [5] 17.6 µM | GI50 [6] 13.7 µM | GI50 [7] > 25 µM | GI50 [8] > 25 µM | GI50 [9] > 25 µM | GI50 [10] 16.5 µM | GI50 [11] > 25 µM | GI50 [12] > 25 µM | GI50 [13] > 25 µM | GI50 [14] > 25 µM | GI50 [15] > 25 µM | GI50 [16] 8.73 µM | GI50 [17] 14.9 µM | GI50 [18] > 25 µM | GI50 [19] > 25 µM | GI50 [20] > 25 µM | GI50 [21] > 25 µM | GI50 [22] > 25 µM | GI50 [23] > 25 µM | GI50 [24] > 25 µM | GI50 [25] > 25 µM | GI50 [26] > 25 µM | GI50 [27] > 25 µM | GI50 [28] > 25 µM | GI50 [29] > 25 µM | GI50 [30] > 25 µM | GI50 [31] > 25 µM | GI50 [32] > 25 µM | GI50 [33] > 25 µM | GI50 [34] > 25 µM | GI50 [35] > 25 µM | GI50 [36] > 25 µM | GI50 [37] > 25 µM | GI50 [38] > 25 µM | GI50 [39] > 25 µM | GI50 [40] > 20.6 µM | GI50 [41] > 25 µM | GI50 [42] > 25 µM | GI50 [43] 12.2 µM | GI50 [44] > 25 µM | GI50 [45] > 25 µM | GI50 [46] > 25 µM | GI50 [47] > 25 µM | GI50 [48] > 25 µM | GI50 [49] > 25 µM | GI50 [50] > 12.8 µM | GI50 [51] > 25 µM | GI50 [52] > 25 µM | GI50 [53] 11.3 µM | GI50 [54] > 25 µM | GI50 [55] > 25 µM | GI50 [56] > 25 µM | GI50 [57] > 17.8 µM
> 25 µM: TGI [1] | TGI [2] | TGI [3] | TGI [4] | TGI [5] | TGI [6] | TGI [7] | TGI [8] | TGI [9] | TGI [10] | TGI [11] | TGI [12] | TGI [13] | TGI [14] | TGI [15] | TGI [16] | TGI [17] | TGI [18] | TGI [19] | TGI [20] | TGI [21] | TGI [22] | TGI [23] | TGI [24] | TGI [25] | TGI [26] | TGI [27] | TGI [28] | TGI [29] | TGI [30] | TGI [31] | TGI [32] | TGI [33] | TGI [34] | TGI [35] | TGI [36] | TGI [37] | TGI [38] | TGI [39] | TGI [40] | TGI [41] | TGI [42] | TGI [43] | TGI [44] | TGI [45] | TGI [46] | TGI [47] | TGI [48] | TGI [49] | TGI [51] | TGI [52] | TGI [53] | TGI [54] | TGI [55] | TGI [56] | TGI [57]
> 24 µM: TGI [50]

COc1cc2c(c(OC)c1OC)-c1ccc(NCc3ccccc3)c(=O)cc1[C@@H](NC(C)=O)CC2
17.1 µM: TGI [29]
19.7 µM: TGI [25]
14.9 µM: TGI [22]
0.638 µM: TGI [8]
23.2 µM: TGI [23]
16.8 µM: TGI [19]
7.91 µM: TGI [9]
54.9 µM: TGI [30]
> 66.6 µM: TGI [4]
45.3 µM: TGI [48]
22.8 µM: TGI [44]
active: GI50 [2] 0.248 µM | GI50 [7] 0.34 µM | GI50 [8] 0.277 µM | GI50 [9] 0.374 µM | GI50 [12] 0.419 µM | GI50 [14] 0.353 µM | GI50 [15] 0.413 µM | GI50 [16] 0.318 µM | GI50 [17] 0.362 µM | GI50 [18] 0.373 µM | GI50 [20] 0.381 µM | GI50 [21] 0.374 µM | GI50 [23] 0.359 µM | GI50 [25] 0.337 µM | GI50 [27] 0.187 µM | GI50 [31] 0.369 µM | GI50 [32] 0.327 µM | GI50 [34] 0.309 µM | GI50 [38] 0.406 µM | GI50 [43] 0.309 µM | GI50 [46] 0.422 µM | GI50 [47] 0.294 µM | GI50 [50] 0.318 µM | GI50 [51] 0.391 µM | GI50 [54] 0.368 µM
4.1 µM: TGI [16]
46.8 µM: TGI [1]
40.2 µM: TGI [24]
16.9 µM: TGI [15]
37.5 µM: TGI [55]
11.7 µM: TGI [26]
25.2 µM: TGI [50]
45.8 µM: TGI [6]
65 µM: TGI [37]
22.4 µM: TGI [56]
44.9 µM: TGI [57]
> 100 µM: TGI [3] | TGI [7] | TGI [12] | TGI [20] | TGI [33] | TGI [36] | TGI [49] | TGI [51] | TGI [53]
1.94 µM: TGI [46]
41.5 µM: TGI [52]
> 73.5 µM: TGI [41]
43 µM: TGI [17]
18.3 µM: TGI [42]
11.9 µM: TGI [18]
43.7 µM: TGI [38]
0.833 µM: TGI [47]
2.82 µM: TGI [34]
0.486 µM: TGI [27]
1.52 µM: TGI [32]
18 µM: TGI [31]
3.51 µM: TGI [43]
inactive: GI50 [1] 0.745 µM | GI50 [3] 0.453 µM | GI50 [4] 1.39 µM | GI50 [5] 1.41 µM | GI50 [6] 3.23 µM | GI50 [11] 0.529 µM | GI50 [13] 1.09 µM | GI50 [19] 0.595 µM | GI50 [22] 0.444 µM | GI50 [24] 0.72 µM | GI50 [26] 0.461 µM | GI50 [28] 0.489 µM | GI50 [29] 1.01 µM | GI50 [30] 0.628 µM | GI50 [33] 18.7 µM | GI50 [35] 0.989 µM | GI50 [36] 0.723 µM | GI50 [37] 0.444 µM | GI50 [39] 0.531 µM | GI50 [41] 0.788 µM | GI50 [42] 0.617 µM | GI50 [44] 0.643 µM | GI50 [45] 0.499 µM | GI50 [48] 0.629 µM | GI50 [49] 0.638 µM | GI50 [58] 0.436 µM | GI50 [52] 0.589 µM | GI50 [53] 4.82 µM | GI50 [55] 0.671 µM | GI50 [56] 0.526 µM | GI50 [57] 4.99 µM
26.1 µM: TGI [5]
> 48.4 µM: TGI [13]
19.9 µM: TGI [21]
> 44.3 µM: TGI [58]
11.8 µM: TGI [54]
0.771 µM: TGI [2]
45.9 µM: TGI [35]
31.5 µM: TGI [45]
> 87.5 µM: TGI [28]
16.3 µM: TGI [39]
13.2 µM: TGI [11]
